Reference: patent US20180188224A1, “METHOD FOR CONSTRUCTING A SENSORY SPACE” (CENTRE SCIENTIFIQUE ET TECHNIQUE DU BATIMENT (CSTB), priority 2015, published 2018)

Legend:
[1] = test system: four non-smoking volunteers (2 men and 2 women); test: Hedonic score, 11-point scale (0 very unpleasant to 10 very pleasant, 5 neutral); assay type: in vivo, human
Protocol: In this test, four non-smoking volunteers (2 men and 2 women) were chosen from 12 people for their performance in taste recognition. Their mean age was 32 years, ranging from 24 to 40 years. […] These four people were trained for several months to recognize and detect the four basic tastes, and also regarding the procedures of sensory and physiological analysis.
The four basic tastes (sweet, salty, sour and bitter) were used. The solutions were prepared with citric acid for the sour taste, caffeine for the bitter taste, sodium chloride for the salty taste and sucrose for the sweet taste (all purchased from Sigma Aldrich, France) in Evian water. Evian water was also used as control and blank. Each taste was prepared with the four concentrations mentioned in table 1.
The amount of solution to be tested was standardized at 10 ml. In order to impregnate the whole of the oral cavity, the subjects kept the solution in their mouth for 5 s before swallowing it.
The sessions were individual and the subjects were asked not to eat or drink anything for at least 1 h before the test. They arrived 15 min before the start of the session in order to acclimatize to the environmental conditions, in particular the temperature of the room (kept constant at 23° C.) and to be resting seated on a comfortable chair. The 16 solutions for testing and two additional samples of water containing solely Evian water, added to the references, were presented monadically following a test order determined from a “balanced incomplete block design”. During a session, 9 samples out of 18 were presented to minimize sensory fatigue. In addition, a sample of Evian was always tested as a “blank” sample in order to avoid the first-order effect (Lawless, H. T. & Heymann, H., 2010, Sensory evaluation of food: Principles and practices. Springer, New York) and was excluded from the analysis. A light signal was sent to give the instruction to test the sample. When the disturbance to the nervous system returned to its baseline level (after approximately 1 min), a second light signal indicated to the subjects that they should complete a questionnaire regarding the stimulus tested previously. The first part of the questionnaire was linked to the identification of the taste (i.e. determining the quality of the taste); the subjects had to choose between five labels: sweet, salty, sour, bitter or neutral. They then had to assign a taste intensity score on an 11-point scale (from 0 “not intense” (i.e. taste of Evian only) to 10 “very intense”) and finally to give a hedonic score on an 11-point scale (from 0 “very unpleasant” to 10 “very pleasant”, 5 being “neutral”).
This procedure was repeated for each of the 9 stimuli. A session lasted approximately 45 min including a debriefing at the end of the test to ensure understanding of the sense of the signal variations. The experiment was repeated 12 times per subject, meaning that the data are composed of 6 data sets per subject and per product and 12 data sets for the Evian product per subject. Thus, the database consists of 432 samples.
The effect of the taste on the hedonic and intensity scores was analyzed by an analysis of variance (ANOVA) including the product effect, the subject effect and the product-subject interaction. The subject effect was fixed because there were only 4 subjects and the results could only be applied to a particular schema. The differences were considered to be significant at a level of 0.05.

subject 3 = test: Skin blood microcirculation (SKBF) response to taste stimuli, PCA sensory space (ESRP); assay type: in vivo, human; conditions: concentration 4
Text: A Periflux PF 5010 (Perimed AB, Sweden) system was chosen, which enables non-invasive monitoring of blood perfusion in the capillaries, arterioles and venules.
The unit of blood perfusion is arbitrary and corresponds to the product of the mean rate of displacement of the red blood cells by their concentration. The system Periflux PF 5010 has a 780 nm, 1 mm diameter laser beam without thermal effect. An optical fiber probe PR407 is used. The low-energy laser beam is transmitted by the probe to the tissue. A portion of the light reflects off the static structures and another portion of the light reflects off the moving blood cells. When the light reflects off a moving cell, the wavelength is modified, which corresponds to the Doppler effect. The scattered light collected by the optical fiber is used to calculate the perfusion value. The measurement is expressed in perfusion units (PU). Recording was carried out on the pad of the index finger of the non-dominant hand, due to the high level of vascularization of this zone. The perfusion signals were recorded by an 8-channel PowerLab PL35088/35 acquisition system; the data were collected at a frequency of 1 kHz and analyzed by the LabChart® software (AD instruments Ltd, United Kingdom).
. Then, the peak was analyzed manually by selecting the whole of the peak and analyzing it with the LabChart® software (FIG. 1).
Several shape parameters were extracted from the signal (i.e. amplitude, duration, gradient). […]
The SKBF responses were analyzed individually by one-way ANOVA (product effect), the subjects having their own “preferential channel” (Lacey, J. I., Bateman, D. E. & VanLEHN, R., 1953, Autonomic response specificity: An experimental study. Psychosomatic Medicine, 15, 8-21). […]

| SMILES | hedonic score ([1]; each of the NaCl concentrations (one value given)) | SKBF disturbance (signal width, area of the peak; ANOVA) (subject 3) | hedonic score ([1]; concentration 4 (highest)) |
| --- | --- | --- | --- |
| [Cl-].[Na+] [NaCl, sodium chloride] | 1.3±0.9 | significantly stronger disturbance than the others | – |
| O=C(O)CC(O)(CC(=O)O)C(=O)O [Citric acid, citric acid] | – | significantly stronger disturbance than the others | 3.3±2.4 |
